The text below walks through data of PMC11775380, “Discovery of Novel Nav1.7-Selective Inhibitors with the 1H-Indole-3-Propionamide Scaffold for Effective Pain Relief” (Research, 2025).

Broadly, the IC50 is the midpoint of a concentration-inhibition curve. Low readings indicate greater potency, high ones weaker potency.

One experiment deals with T1, human Nav1.7 (hNav1.7) (Homo sapiens, UniProt Q15858).
T1 construct: expressed in transfected cells; host or cells: HEK293T
T1 sequence (Q15858 whole entry): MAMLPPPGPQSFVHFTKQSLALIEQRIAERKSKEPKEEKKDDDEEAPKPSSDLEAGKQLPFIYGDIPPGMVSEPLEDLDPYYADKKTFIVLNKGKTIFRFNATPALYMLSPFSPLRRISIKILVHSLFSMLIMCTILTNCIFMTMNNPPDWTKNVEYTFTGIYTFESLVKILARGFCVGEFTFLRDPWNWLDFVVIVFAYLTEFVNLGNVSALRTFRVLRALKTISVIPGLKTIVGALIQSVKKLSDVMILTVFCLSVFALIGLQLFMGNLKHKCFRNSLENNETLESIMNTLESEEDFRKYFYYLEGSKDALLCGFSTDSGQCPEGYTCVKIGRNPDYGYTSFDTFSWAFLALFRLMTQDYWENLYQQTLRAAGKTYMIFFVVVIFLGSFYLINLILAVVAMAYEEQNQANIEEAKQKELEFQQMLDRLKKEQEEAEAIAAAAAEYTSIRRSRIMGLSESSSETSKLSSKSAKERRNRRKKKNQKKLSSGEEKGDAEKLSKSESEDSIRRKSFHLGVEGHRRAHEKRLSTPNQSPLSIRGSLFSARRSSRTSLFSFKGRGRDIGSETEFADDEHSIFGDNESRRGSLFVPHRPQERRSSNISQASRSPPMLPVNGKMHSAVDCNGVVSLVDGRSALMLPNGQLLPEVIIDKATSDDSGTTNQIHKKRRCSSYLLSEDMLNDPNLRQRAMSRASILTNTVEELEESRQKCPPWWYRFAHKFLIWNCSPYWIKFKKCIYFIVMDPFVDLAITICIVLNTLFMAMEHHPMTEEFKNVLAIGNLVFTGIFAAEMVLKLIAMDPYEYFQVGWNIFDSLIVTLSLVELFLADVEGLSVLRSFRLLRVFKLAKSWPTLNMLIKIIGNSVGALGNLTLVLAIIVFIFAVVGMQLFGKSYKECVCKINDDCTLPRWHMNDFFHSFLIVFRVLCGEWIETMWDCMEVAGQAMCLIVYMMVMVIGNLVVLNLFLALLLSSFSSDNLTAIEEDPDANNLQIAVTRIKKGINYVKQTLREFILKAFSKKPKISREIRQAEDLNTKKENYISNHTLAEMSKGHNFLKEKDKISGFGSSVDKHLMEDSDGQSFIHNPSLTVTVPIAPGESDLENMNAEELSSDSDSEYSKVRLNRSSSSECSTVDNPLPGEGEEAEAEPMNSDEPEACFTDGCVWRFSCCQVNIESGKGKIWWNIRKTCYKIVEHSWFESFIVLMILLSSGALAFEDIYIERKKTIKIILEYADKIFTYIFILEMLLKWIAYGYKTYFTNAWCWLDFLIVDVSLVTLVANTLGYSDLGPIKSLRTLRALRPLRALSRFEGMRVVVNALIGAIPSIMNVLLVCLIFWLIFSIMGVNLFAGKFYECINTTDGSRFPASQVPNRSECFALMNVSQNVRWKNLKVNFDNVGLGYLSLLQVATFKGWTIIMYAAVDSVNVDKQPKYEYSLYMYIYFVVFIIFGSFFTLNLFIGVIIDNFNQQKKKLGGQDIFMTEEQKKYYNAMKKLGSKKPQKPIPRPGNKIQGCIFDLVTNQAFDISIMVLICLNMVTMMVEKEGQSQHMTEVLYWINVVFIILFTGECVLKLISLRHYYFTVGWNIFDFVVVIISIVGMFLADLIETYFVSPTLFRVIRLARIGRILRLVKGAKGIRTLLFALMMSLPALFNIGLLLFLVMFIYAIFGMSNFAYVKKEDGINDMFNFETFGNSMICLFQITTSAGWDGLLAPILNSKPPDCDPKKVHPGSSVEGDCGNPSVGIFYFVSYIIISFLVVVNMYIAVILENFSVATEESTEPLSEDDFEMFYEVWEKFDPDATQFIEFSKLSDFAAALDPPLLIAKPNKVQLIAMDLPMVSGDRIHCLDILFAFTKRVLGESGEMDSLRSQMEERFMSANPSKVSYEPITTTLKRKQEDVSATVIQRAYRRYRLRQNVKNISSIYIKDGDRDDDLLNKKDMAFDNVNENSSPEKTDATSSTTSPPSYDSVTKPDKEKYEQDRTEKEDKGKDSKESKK
T1 sequence (Q07699 19-218 partner): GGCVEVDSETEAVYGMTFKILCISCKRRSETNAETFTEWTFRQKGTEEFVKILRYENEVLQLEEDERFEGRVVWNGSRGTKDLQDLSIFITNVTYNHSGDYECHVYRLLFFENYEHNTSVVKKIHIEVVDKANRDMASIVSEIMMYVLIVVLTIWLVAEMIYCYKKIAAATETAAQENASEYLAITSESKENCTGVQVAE
T1 sequence (O60939 30-215 partner): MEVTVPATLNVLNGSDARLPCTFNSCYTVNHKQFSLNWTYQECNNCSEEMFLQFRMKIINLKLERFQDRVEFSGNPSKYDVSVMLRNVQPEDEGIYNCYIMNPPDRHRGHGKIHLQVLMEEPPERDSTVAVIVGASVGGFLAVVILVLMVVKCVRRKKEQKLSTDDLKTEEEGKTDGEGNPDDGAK
The experiment in a line: Whole-cell patch-clamp inhibition of Nav1.7 currents in transfected HEK293T cells. In kind it is cell-based. Particulars: 10 μM compound; inhibition rate of Nav1.7. The protocol: Human embryonic kidney (HEK) 293T (ATCC CRL-3216) and ND7/23 cells (National Collection of Authenticated Cell Cultures SCSP-5026) were cultured under standard conditions (5% CO2, 37 °C) in Dulbecco’s modified Eagle’s medium (DMEM) containing 10% fetal bovine serum and 1% penicillin-streptomycin solution(all from Gibco, Thermo Fisher Scientific, Waltham, MA, USA). When the cells reached 70% to 90% confluence, human Nav1.2 (hNav1.2), human Nav1.3 (hNav1.3), human Nav1.4 (hNav1.4), human Nav1.5 (hNav1.5), and mouse Nav1.6 (mNav1.6) channel plasmids were cotransfected with enhanced green fluorescent protein (eGFP) into HEK293T cells. Additionally, plasmids expressing β1 and β2 subunits tagged with eGFP were cotransfected with the human Nav1.7 (hNav1.7) channel into HEK293T cells. Human Nav1.8 (hNav1.8) was transiently transfected into ND7/23 cells, along with eGFP, using Lipofectamine 2000 (Invitrogen), adhering strictly to the manufacturer’s protocol. For manual patch-clamp experiments, the cells were plated onto glass coverslips and used within 20 to 48 h of transfection.
Whole-cell patch-clamp recordings were conducted at 25 ± 2 °C, utilizing an EPC 10USB patch-clamp amplifier (HEKA Elektronik, Lambrecht, Germany). Pipettes, with access resistance between 2.0 and 3.0 MΩ, were pulled from borosilicate glass capillary tubes using a 2-step vertical microelectrode puller (PC-10, Narishige Group, Tokyo, Japan). Voltage-clamp recordings were obtained with PatchMaster software v2 × 73 (HEKA Elektronik) 5 min after establishing whole-cell configuration, sampled at 20 kHz, and filtered at 5 kHz. To minimize voltage errors, 80% series resistance compensation was applied. Pipettes were filled with 140 mM CsF, 10 mM NaCl, 1 mM EGTA, and 10 mM HEPES (pH=7.4, adjusted with CsOH). The external solution contained 140 mM NaCl, 2 mM CaCl2, 1 mM MgCl2, 5 mM KCl, 10 mM HEPES, and 10 mM glucose (pH=7.4, adjusted with NaOH). IC50 values were determined in HEK293T or ND7/23 cell lines by voltage clamping at −80 mV, followed by stepping to the V1/2 of inactivation for 8 s to facilitate compound binding.
“(C)C(CC(=O)NCCC1=CC=CC=N1)C2=CN(C3=CC=CC=C32)CC4=CC=CC=C4 [B37]”: the “Inhibitory activity (10 μM)” value was 19.13% ± 16.30%.

Still in this experiment, the particulars now being: HEK-293T; 10 μM compound; inhibition rate of Nav1.7; read-out: Inhibitory activity (10 μM).
For the compound `O=C(CC(c1ccc(C(F)(F)F)cc1)c1cn(Cc2ccc(F)cc2)c2ccccc12)NCc1ccncc1` (stereo not shown) [B23, C1=CC=C2C(=C1)C(=CN2CC3=CC=C(C=C3)F)C(CC(=O)NCC4=CC=NC=C4)C5=CC=C(C=C5)C(F)(F)F], the inhibition at 10 µM is 18.2%.

For `O=C(CC(c1ccc(C(F)(F)F)cc1)c1cn(Cc2ccc(F)cc2)c2ccccc12)NCCN1CCOCC1` (stereo not shown) [B24, C1COCCN1CCNC(=O)CC(C2=CC=C(C=C2)C(F)(F)F)C3=CN(C4=CC=CC=C43)CC5=CC=C(C=C5)F], the inhibition at 10 µM came to 16%. `O=C(CC(c1ccc(C(F)(F)F)cc1)c1cn(Cc2ccc(F)cc2)c2ccccc12)N1CCCC1` (stereo not shown) [B25, C1CCN(C1)C(=O)CC(C2=CC=C(C=C2)C(F)(F)F)C3=CN(C4=CC=CC=C43)CC5=CC=C(C=C5)F]: the inhibition at 10 µM was determined as 23.1%. For the compound `COc1cc(OC)cc(C(CC(=O)NCCc2ccccn2)c2cn(Cc3ccc(F)cc3)c3ccccc23)c1` (stereo not shown) [B26, COC1=CC(=CC(=C1)C(CC(=O)NCCC2=CC=CC=N2)C3=CN(C4=CC=CC=C43)CC5=CC=C(C=C5)F)OC], the inhibition at 10 µM was found to be 26.1%. Take `O=C(CC(c1cccc(Cl)c1)c1cn(Cc2ccc(F)cc2)c2ccccc12)NCCc1ccccn1` (stereo not shown) [B27, C1=CC=C2C(=C1)C(=CN2CC3=CC=C(C=C3)F)C(CC(=O)NCCC4=CC=CC=N4)C5=CC(=CC=C5)Cl]: the inhibition at 10 µM is 16%. Regarding `O=C(CC(c1cccc(Oc2ccccc2)c1)c1cn(Cc2ccc(F)cc2)c2ccccc12)NCCc1ccccn1` (stereo not shown) [B28, C1=CC=C(C=C1)OC2=CC=CC(=C2)C(CC(=O)NCCC3=CC=CC=N3)C4=CN(C5=CC=CC=C54)CC6=CC=C(C=C6)F], the inhibition at 10 µM turned out to be 29.2%.

For the compound `COc1ccc(Cn2cc(C(CC(=O)NCCc3ccccn3)c3ccc(OC)cc3)c3ccccc32)cc1` (stereo not shown) [B29, COC1=CC=C(C=C1)CN2C=C(C3=CC=CC=C32)C(CC(=O)NCCC4=CC=CC=N4)C5=CC=C(C=C5)OC], the inhibition at 10 µM is 9.42%.

As to `COc1ccc(Cn2cc(C(CC(=O)NCCc3ccccn3)c3cccc(Cl)c3)c3ccccc32)cc1` (stereo not shown) [B30, COC1=CC=C(C=C1)CN2C=C(C3=CC=CC=C32)C(CC(=O)NCCC4=CC=CC=N4)C5=CC(=CC=C5)Cl], the inhibition at 10 µM was found to be 8.62%. On the same count and under the same terms, the figure for `O=S(=O)(c1ccc(F)cc1)N(c1ccc2c(c1)OCO2)C1CCN(Cc2cccnc2)CC1` [B31, C1CN(CCC1N(C2=CC3=C(C=C2)OCO3)S(=O)(=O)C4=CC=C(C=C4)F)CC5=CN=CC=C5] is 16%; for `O=C(CC(c1ccc(C(F)(F)F)cc1)c1cn(Cc2ccccc2)c2ccccc12)NCCc1ccccn1` (stereo not shown) [B32, C1=CC=C(C=C1)CN2C=C(C3=CC=CC=C32)C(CC(=O)NCCC4=CC=CC=N4)C5=CC=C(C=C5)C(F)(F)F] it is 16.6%. The same measure, in the same setting: with `O=C(CC(c1cccc(C(F)(F)F)c1)c1cn(Cc2ccc(F)cc2)c2ccccc12)NCCc1ccccn1` (stereo not shown) [B33, C1=CC=C2C(=C1)C(=CN2CC3=CC=C(C=C3)F)C(CC(=O)NCCC4=CC=CC=N4)C5=CC(=CC=C5)C(F)(F)F] the figure was 19.8%; with `CC(C)CNC(=O)CC(c1ccc(C(F)(F)F)cc1)c1cn(Cc2ccccc2)c2ccccc12` (stereo not shown) [B34, CC(C)CNC(=O)CC(C1=CC=C(C=C1)C(F)(F)F)C2=CN(C3=CC=CC=C32)CC4=CC=CC=C4], 13.4%. Same read-out and setting: the figure for `O=C(CC(c1cccc(C(F)(F)F)c1)c1cn(Cc2ccc(F)cc2)c2ccccc12)NCc1ccncc1` (stereo not shown) [B35, C1=CC=C2C(=C1)C(=CN2CC3=CC=C(C=C3)F)C(CC(=O)NCC4=CC=NC=C4)C5=CC(=CC=C5)C(F)(F)F] is 15.6%; for `O=C(CC(c1ccc(C(F)(F)F)cc1)c1cn(Cc2ccccc2)c2ccccc12)NCc1ccncc1` (stereo not shown) [B36, C1=CC=C(C=C1)CN2C=C(C3=CC=CC=C32)C(CC(=O)NCC4=CC=NC=C4)C5=CC=C(C=C5)C(F)(F)F] it is 17.2%. As to `Cn1cc(C(CC(=O)NCCc2ccccn2)c2ccc(C(F)(F)F)cc2)c2ccccc21` (stereo not shown) [B38, CN1C=C(C2=CC=CC=C21)C(CC(=O)NCCC3=CC=CC=N3)C4=CC=C(C=C4)C(F)(F)F], the inhibition at 10 µM stood at 13.9%. On to `O=C(C1CCCN1C(=O)c1csc(Nc2ccc(F)cc2)n1)N1CCOCC1` (stereo not shown) [B39, C1CC(N(C1)C(=O)C2=CSC(=N2)NC3=CC=C(C=C3)F)C(=O)N4CCOCC4], for which the inhibition at 10 µM was determined as 16.7%. With `O=C(CC(c1ccc(C(F)(F)F)cc1)c1cn(Cc2ccc(F)cc2)c2ccccc12)NCCc1ccccn1` (stereo not shown) [WN1, C1=CC=C2C(=C1)C(=CN2CC3=CC=C(C=C3)F)C(CC(=O)NCCC4=CC=CC=N4)C5=CC=C(C=C5)C(F)(F)F], the inhibition at 10 µM was found to be 73.2%. Regarding `Cc1ccc(Cn2cc(C(CC(=O)NCCN(C)C)c3ccc(F)cc3)c3ccccc32)cc1` (stereo not shown) [WN2], the inhibition at 10 µM stood at 91.5%.

Staying with this experiment, now noted: −80 mV holding, step to V1/2 of inactivation for 8 s; HEK293T.
Regarding `O=C(CC(c1ccc(C(F)(F)F)cc1)c1cn(Cc2ccc(F)cc2)c2ccccc12)NCCc1ccccn1` (stereo not shown) [WN1, C1=CC=C2C(=C1)C(=CN2CC3=CC=C(C=C3)F)C(CC(=O)NCCC4=CC=CC=N4)C5=CC=C(C=C5)C(F)(F)F], the IC50 was determined as 3960 ± 140 nM.

Regarding `Cc1ccc(Cn2cc([C@@H](CC(=O)NCCN(C)C)c3ccc(F)cc3)c3ccccc32)cc1` [WN2-S], half-maximal inhibition (IC50) required 113 ± 36.9 nM.

In turn, `Cc1ccc(Cn2cc(C(CC(=O)NCCN(C)C)c3ccc(F)cc3)c3ccccc32)cc1` (stereo not shown) [WN2] had an IC50 of 730 ± 120 nM.
